Patent US20050107289A1, “Anti-microbial peptides and compositions” (priority 2001, published 2005)
Where a name gives a salt, the structure may show the parent alone. Read-outs that look alike come from different tables or passages of the source. Non-standard residues stand in square brackets, D forms with d. Residues, ends and D or L forms follow the SMILES beside them. NMeL = CN[C@@H](CC(C)C)C(=O)O

Assays:
[1] = system: S. aureus (MRSA) ATCC 33591; assay type: cell-based, Staphylococcus aureus; details: for MRSA MIC / S. aureus (MRSA) MIC: ATCC 33591; for MRSA (in vitro activity): Table 9
How it was run: (§1)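 MIC read from NCCLS-style broth dilution. Peptide concentrations were set by quantitative HPLC or Trp UV absorbance at 280 nm, then serially halved from about 400 to 2 μg/ml in 5% DMSO/9% sucrose. Inoculum: approximately 2.5×10^5 cfu/ml.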

E. coli JM109(DE3) = assay type: cell-based, Escherichia coli; details: JM109
Description: (§2) The antimicrobial activity of the peptides was determined using a broth dilution assay essentially as descried in the guidelines of the National Committee for […] (NCCLS) [National Committee for Clinical Laboratory Standards. Methods for dilution antimicrobial susceptibility tests for bacteria that grow aerobically. Fourth edition. Approved Standard (1997). Document M7-A4. […] The microdilution method has the advantages of requiring less amount of peptide for each assay and the possibility of multiple simultaneous inoculations and was used in most studies. Several of the strains of bacteria tested are further described in Table 3.
(§3) Preparation of peptide solutions. Stock peptide solutions were prepared in 5% DMSO in aq. sucrose (9%). Determination of peptide concentrations was done by quantitative HPLC analysis using known concentrations of internal standards and/or by measuring UV absorption of tryptophane-containing peptide solutions in H2O (λ=280 εTrp: 5690). Serial 2-fold dilutions were made in the above DMSO/aq. sucrose (9%) mixture with concentrations ranging approximately 400-2 μg/ml and aliquots were dispensed in test tubes (100 μl) for the macrodilution test or in microtiter plates (20 μl) for the microdilution assays.
(§4) Inoculum preparation. Overnight cultures of different microorganisms grown in suitable media were diluted 4000 times to an approximate inoculum size of 2.5×10^5 cfu/ml.
(§5) Macrodilution method. Macrodilution methods were performed using procedures similar to those described in the National Committee for Clinical Laboratory Standards. Methods for dilution antimicrobial susceptibility tests for bacteria that grow aerobically. Fourth edition. Approved Standard (1997). Document M7-A4. (NCCLS,Villanova, Pa., 1997). Two ml aliquots of the above inoculum were dispensed to test tubes containing different peptide solutions.
(§6) Microdilution method. Microdilution methods were performed using procedures similar to those described in the National Committee for Clinical Laboratory Standards. Methods for dilution antimicrobial susceptibility tests for bacteria that grow aerobically. Fourth edition. Approved Standard (1997). Document M7-A4.

murine red blood cells = assay: Red blood cell hemolysis; assay type: cell-based, mouse; set-up: RBC Hemolysis (HD50): unit not given here; details: for Hemolysis HD50: red cells of murine
How it was run: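 Hemolysis read as A560 of supernatant, scaled between saline (0%) and 1% Triton X-100 (100%) controls; peptides were serially diluted onto 5% murine red cells in saline plus 10% FBS and incubated 30 min at 37° C.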

[2] = system: vancomycin-resistant Enterococus faecalis (VRE)(ATCC 51575); assay type: cell-based, Enterococcus faecalis; set-up: key to VRE (in vitro activity): peptide concentration in μg/ml (broth dilution assay); details: for VRE MIC: ATCC 51575; for VRE (in vitro activity): Table 9
How it was run: as §1

[3] = system: Bacillus cereus ATCC 11778; assay type: cell-based
Description: as §2, §3, §4, §5, §6

[4] = system: Streptococcus pneumoniae (ATCC 6301); assay type: cell-based
Description: as §2, §3, §4, §5, §6

[5] = media a: anti-microbial media-3 (AM-3)
[6] = media b: cation adjusted Meuller Hinton broth (MHBII)
[7] = media c: Brain Heart Infusion (BHI)

| Compound | MRSA MIC ([1]; Table 10) | E. coli MIC (E. coli JM109(DE3)) | Hemolysis HD50 (murine red blood cells) | VRE MIC [2] | B. cerius MIC [3] | S. pneum. MIC [4] | MRSA MIC [1] | S. aureus (MRSA) MIC [1] | MRSA (in vitro activity) [1, 5] | RBC Hemolysis (HD50) (murine red blood cells) | VRE (in vitro activity) ([2]; media a: AM-3) | MRSA (in vitro activity) [1, 6] | VRE (in vitro activity) [2, 7] | RBC Hemolysis (HD50) (murine red blood cells; Table 9) |
| --- | --- | --- | --- | --- | --- | --- | --- | --- | --- | --- | --- | --- | --- | --- |
| CC(C)C[C@H]1NC(=O)[C@H](CCCCN)NC(=O)[C@@H](CC(C)C)NC(=O)[C@H](Cc2c[nH]c3ccccc23)NC(=O)[C@@H](CC(C)C)NC(=O)[C@H](Cc2c[nH]c3ccccc23)NC(=O)[C@@H](CC(C)C)NC(=O)[C@H](Cc2c[nH]c3ccccc23)NC1=O [SEQ ID NO:3, cyclo[-Lys-D-Leu-(Trp-D-Leu)3]] (cyclo(K[dL]W[dL]W[dL]W[dL])) | ppt | 100 µg/mL | 20 µg/mL | 80 µg/mL | 50 µg/mL | 50 µg/mL | – | – | – | – | – | – | – | – |
| CC(C)C[C@H]1NC(=O)[C@H](Cc2c[nH]c3ccccc23)NC(=O)[C@@H](CO)NC(=O)[C@H](CCCCN)NC(=O)[C@@H](CO)NC(=O)[C@H](Cc2c[nH]c3ccccc23)NC(=O)[C@@H](CC(C)C)NC(=O)[C@H](Cc2c[nH]c3ccccc23)NC1=O [SEQ ID NO:5, cyclo-(D-Ser-Lys-D-Ser-Trp-D-Leu-Trp-D-Leu-Trp)] (cyclo(K[dS]W[dL]W[dL]W[dS])) | – | 100 µg/mL | – | 20 µg/mL | > 30 µg/mL | 30 µg/mL | 20 µg/mL | 10 µg/mL | 20 | 30 | 20 | – | – | – |
| CC(C)C[C@H]1NC(=O)[C@H](Cc2c[nH]c3ccccc23)NC(=O)[C@@H](CO)NC(=O)[C@H](Cc2c[nH]cn2)NC(=O)[C@@H]([C@H](C)O)NC(=O)[C@H](Cc2c[nH]c3ccccc23)NC(=O)[C@@H](CC(C)C)NC(=O)[C@H](Cc2c[nH]c3ccccc23)NC1=O [SEQ ID NO:6, cyclo-(D-Thr-His-D-Ser-Trp-D-Leu-Trp-D-Leu-Trp)] (cyclo(H[dS]W[dL]W[dL]W[dT])) | – | 100 µg/mL | – | 100 µg/mL | > 280 µg/mL | 100 µg/mL | 100 µg/mL | 100 µg/mL | 100 | 100 | 100 | – | – | – |
| CC(C)C[C@H]1NC(=O)[C@H](Cc2c[nH]c3ccccc23)NC(=O)[C@@H](CCCNC(=N)N)NC(=O)[C@H](CCC(N)=O)NC(=O)[C@@H](CCCNC(=N)N)NC(=O)[C@H](Cc2c[nH]c3ccccc23)NC(=O)[C@@H](CC(C)C)NC(=O)[C@H](Cc2c[nH]c3ccccc23)NC1=O [SEQ ID NO:10, RQRWLWLW] (cyclo([dR]Q[dR]W[dL]W[dL]W)) | – | – | – | 10 µg/mL | < 1 µg/mL | 4 µg/mL | 10 µg/mL | 18 µg/mL | 10 | 25 | 10 | – | – | – |
| CC(C)C[C@H]1NC(=O)[C@H](Cc2c[nH]c3ccccc23)NC(=O)[C@@H](CCCCN)NC(=O)[C@H](CCC(N)=O)NC(=O)[C@@H](CCCCN)NC(=O)[C@H](Cc2c[nH]c3ccccc23)NC(=O)[C@@H](CC(C)C)NC(=O)[C@H](Cc2c[nH]c3ccccc23)NC1=O [SEQ ID NO:11, cyclo-[Gln-D-Lys-(Trp-D-Leu)2-Trp-D-Lys-]] (cyclo([dK]Q[dK]W[dL]W[dL]W)) | – | 100 µg/mL | – | 20 µg/mL | 7 µg/mL | 8 µg/mL | 20 µg/mL | 45 µg/mL | – | – | – | – | – | – |
| CC(C)C[C@H]1NC(=O)[C@H](Cc2c[nH]c3ccccc23)NC(=O)[C@@H](Cc2c[nH]cn2)NC(=O)[C@H](CCCCN)NC(=O)[C@@H](CO)NC(=O)[C@H](Cc2c[nH]c3ccccc23)NC(=O)[C@@H](CC(C)C)NC(=O)[C@H](Cc2c[nH]c3ccccc23)NC1=O [SEQ ID NO:14, cyclo-(D-Ser-Lys-D-His-Trp-D-Leu-Trp-D-Leu-Trp)] (cyclo(K[dH]W[dL]W[dL]W[dS])) | – | 100 µg/mL | – | 30 µg/mL | 6 µg/mL | – | 15 µg/mL | 15 µg/mL | 15 | 20 | 30 | – | – | – |
| CC(C)C[C@H]1NC(=O)[C@H](Cc2c[nH]c3ccccc23)NC(=O)[C@@H](CCCNC(=N)N)NC(=O)[C@H](CCCNC(=N)N)NC(=O)[C@@H](CCCNC(=N)N)NC(=O)[C@H](Cc2c[nH]c3ccccc23)NC(=O)[C@@H](CC(C)C)NC(=O)[C@H](Cc2c[nH]c3ccccc23)NC1=O [SEQ ID NO:20, RRRWLWLW] (cyclo([dR]R[dR]W[dL]W[dL]W)) | – | 50 µg/mL | 35 µg/mL | – | – | – | – | 10 µg/mL | – | – | – | – | – | – |
| CC(C)C[C@@H]1NC(=O)[C@@H](Cc2c[nH]c3ccccc23)NC(=O)[C@H](CCCNC(=N)N)NC(=O)[C@@H](CCCNC(=N)N)NC(=O)[C@H](CCCNC(=N)N)NC(=O)[C@@H](Cc2c[nH]c3ccccc23)NC(=O)[C@H](CC(C)C)NC(=O)[C@@H](Cc2c[nH]c3ccccc23)NC1=O [SEQ ID NO:133, [RRRWLWLW]] (cyclo(R[dR]R[dW]L[dW]L[dW])) | – | 35 µg/mL | 35 µg/mL | – | 10 µg/mL | 5 µg/mL | 10 µg/mL | – | – | – | – | – | – | – |
| CC(C)C[C@H]1C(=O)N[C@H](Cc2c[nH]c3ccccc23)C(=O)N(C)[C@@H](CC(C)C)C(=O)N[C@H](Cc2c[nH]c3ccccc23)C(=O)N[C@@H](CCCCN)C(=O)N[C@H](CCC(N)=O)C(=O)N[C@@H](CCCNC(=N)N)C(=O)N[C@H](Cc2c[nH]c3ccccc23)C(=O)N1C [SEQ ID NO:140, c[KQRW^MeLW^MeLW]] (cyclo(K[dQ]R[dW][NMeL][dW][NMeL][dW])) | – | – | – | 100 µg/mL | 8 µg/mL | 10 µg/mL | 10 µg/mL | – | – | – | – | – | – | – |
| CC(C)C[C@H]1NC(=O)[C@H](CCCCN)NC(=O)[C@@H](CCCNC(=N)N)NC(=O)[C@H](Cc2c[nH]c3ccccc23)NC(=O)[C@@H](CC(C)C)NC(=O)[C@H](Cc2c[nH]c3ccccc23)NC1=O [SEQ ID NO:141, [RKLWLW]] (cyclo([dR]K[dL]W[dL]W)) | – | – | – | 25 µg/mL | 13 µg/mL | 20 µg/mL | 25 µg/mL | – | – | – | – | – | – | – |
| CC(C)C[C@H]1NC(=O)[C@H](CCC(=O)O)NC(=O)[C@@H](CCCCN)NC(=O)[C@H](Cc2c[nH]c3ccccc23)NC(=O)[C@@H](CC(C)C)NC(=O)[C@H](Cc2c[nH]c3ccccc23)NC(=O)[C@@H](CC(C)C)NC(=O)[C@H](Cc2c[nH]c3ccccc23)NC1=O [SEQ ID NO:143, [KELWLWLW]] (cyclo([dK]E[dL]W[dL]W[dL]W)) | – | – | – | 100 µg/mL | > 140 µg/mL | 100 µg/mL | 100 µg/mL | – | – | – | – | – | – | – |
| CC(C)C[C@@H](NC(=O)[C@H](Cc1c[nH]c2ccccc12)NC(=O)[C@@H](CC(C)C)NC(=O)[C@H](Cc1c[nH]c2ccccc12)NC(=O)[C@@H](CCCCN)NC(=O)[C@H](CCCCN)NC(=O)[C@@H](CCCCN)NC(=O)[C@@H](N)Cc1c[nH]c2ccccc12)C(=O)O [SEQ ID NO:144, H-WKKKWLWL-OH] (H-W[dK]K[dK]W[dL]W[dL]-OH) | – | – | – | 100 µg/mL | 340 µg/mL | 100 µg/mL | 60 µg/mL | – | – | – | – | – | – | – |
| CC(C)C[C@H]1NC(=O)[C@H](Cc2c[nH]c3ccccc23)NC(=O)[C@@H](CCCNC(=N)N)NC(=O)[C@H](CCC(N)=O)NC(=O)[C@@H](CCCCN)NC(=O)[C@H](Cc2c[nH]c3ccccc23)NC(=O)[C@@H](CC(C)C)NC(=O)[C@H](Cc2c[nH]c3ccccc23)NC1=O [[KQRWLWLW-HCl] (8), cyclo-(D-Lys-Gln-D-Arg-Trp-D-Leu-Trp-D-Leu-Trp)] (cyclo([dK]Q[dR]W[dL]W[dL]W)) | – | – | – | – | – | – | – | – | – | 70 | – | 8 | 8 | – |
| CC(C)C[C@H]1NC(=O)[C@H](Cc2c[nH]c3ccccc23)NC(=O)[C@@H](Cc2c[nH]cn2)NC(=O)[C@H](Cc2c[nH]cn2)NC(=O)[C@@H](CO)NC(=O)[C@H](Cc2c[nH]c3ccccc23)NC(=O)[C@@H](CC(C)C)NC(=O)[C@H](Cc2c[nH]c3ccccc23)NC1=O [[SHHWLWLW-HCl] (15), SHHWLWLW] (cyclo([dS]H[dH]W[dL]W[dL]W)) | – | – | – | – | – | – | – | – | – | 40 | – | 6 | 6 | – |
| [KSOLWLWL] [SEQ ID NO:63] | – | – | – | – | – | – | – | – | – | – | – | 12 | 25 | 150 |
